Test in all cases: Bliss excess, mean over the matrix (fraction); higher = more synergy
The test system of assay [1] is AMO-1 (Plasma Cell Myeloma). In short, it runs like this: (§1)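 Cell lines grown in DMEM/F12 or RPMI with 10% FBS were plated in 1536-well plates and held 24 hours at 37°C, 5% CO2 before 72 hours of exposure to two-drug dose matrices, with DMSO typically at 0.2%. CellTiter-Glo 2.0 luminescence gave viability, which was converted to inhibition. Vehicle wells were set to 0 and blank wells to 1. Combination Emax is the second-highest inhibition in the matrix, and Bliss excess is the observed combination effect minus the expected EA + EB − EA·EB, where EA and EB are the single-agent effects.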

For assay [2], the system named is BT-549 (Breast Carcinoma). In short, it runs like this:
as §1

The test system of assay [3] is Ca9-22 (Head and Neck Carcinoma). In short, it runs like this:
as §1

Assay [4] has as its system Caov-4 (Ovarian Carcinoma). An outline of the steps:
as §1

The test system of another assay is D-263MG (Glioblastoma). In short, it runs like this:
as §1

Assay [5] relates to EFM-19 (Breast Carcinoma). An outline of the steps: as §1
Another assay relates to EW-24 (Ewing's Sarcoma). In short, it runs like this: as §1
In assay [6] the test system is EoL-1-cell (Acute Myeloid Leukemia). In short, it runs like this: as §1
Assay [7] deals with Hs-766T (Pancreatic Carcinoma). An outline of the steps:
as §1

In assay [8] the test system is KYSE-450 (Esophageal Squamous Cell Carcinoma). In short, it runs like this: as §1
In assay [9] the test system is LU-65 (Non-Small Cell Lung Carcinoma). In short, it runs like this: as §1
Assay [10] relates to MIA-PaCa-2 (Pancreatic Carcinoma). In short, it runs like this: as §1
Assay [11] concerns MLMA (Other Blood Carcinomas). An outline of the steps:
as §1

Assay [12] deals with NCI-H358 (Lung Adenocarcinoma). An outline of the steps:
as §1

In assay [13] the test system is PANC-04-03 (Pancreatic Carcinoma). An outline of the steps:
as §1

Assay [14] relates to RF-48 (B-Cell Non-Hodgkin's Lymphoma). In short, it runs like this: as §1
Assay [15] has as its system SW13 (Other Solid Carcinomas). An outline of the steps: as §1
For another assay, the system named is TGW (Neuroblastoma). In short, it runs like this: as §1
The subject of another assay is TK10 (Kidney Carcinoma). In short, it runs like this:
as §1

A further assay deals with UACC-62 (Melanoma). An outline of the steps:
as §1

Structures are written as SMILES.

In the case of `CN(CCO)CC[C@H](CSc1ccccc1)Nc1ccc(S(=O)(=O)NC(=O)c2ccc(N3CCC([C@@H](O)c4ccccc4-c4ccc(Cl)cc4)CC3)cc2)cc1S(=O)(=O)C(F)(F)F` [AZD4320] + Cn1cnc2c(F)c(Nc3ccc(Br)cc3Cl)c(C(=O)NOCCO)cc21 [Selumetinib] (first compound max 1 µM, 7x7, partner max 3 µM), the Bliss excess in [1] is 0.0579; in [2] it was -0.0231; in assay [3] it was 0.0415; in [4], 0.0418; with D-263MG (Glioblastoma), -0.0094; in assay [5], -0.102. For the same molecule, the Bliss excess was -0.0352 with EW-24 (Ewing's Sarcoma); 0.0593 in [6]; -0.013 in assay [7]; 0.0177 in assay [8]; 0.0176 in [9]; -0.0098 in assay [10]. The Bliss excess in assay [11] is 0.0436; in assay [12], 0.0054; in [13] it was 0.0708; in assay [14], -0.0317; in [15], 0.0166; in the assay with TGW (Neuroblastoma), 0.0147. Further, the Bliss excess in the assay on TK10 (Kidney Carcinoma) was -0.0867; with UACC-62 (Melanoma) it was -0.0035.

Take `CN(CCO)CC[C@H](CSc1ccccc1)Nc1ccc(S(=O)(=O)NC(=O)c2ccc(N3CCC([C@@H](O)c4ccccc4-c4ccc(Cl)cc4)CC3)cc2)cc1S(=O)(=O)C(F)(F)F` [AZD4320] + Nc1ccn([C@@H]2O[C@H](CO)[C@@H](O)C2(F)F)c(=O)n1 [Gemcitabine] (first compound max 1 µM, 7x7, partner max 0.3 µM): the Bliss excess in assay [1] was -0.036; in assay [2], -0.0365; in assay [3], 0.0876; in assay [4] it was -0.0556; with D-263MG (Glioblastoma) it was -0.0625; in assay [5] it was 0.0067. The Bliss excess with EW-24 (Ewing's Sarcoma) was 0.118; in assay [6] it was 0.0217; in [7], -0.0777; in assay [8] it was -0.0497; in assay [9], -0.0667; in assay [10], -0.025. For the same molecule, the Bliss excess in assay [11] was -0.0381; in assay [12] it was -0.0227; in assay [13], -0.0496; in assay [14] it was -0.0365; in assay [15], -0.017; in the assay with TGW (Neuroblastoma), 0.0257. Moreover, the Bliss excess in the assay on TK10 (Kidney Carcinoma) was 0.0032; with UACC-62 (Melanoma), -0.006.

Take `Cc1cc2ncnn2cc1Nc1ncc2c(n1)n(C1CCOCC1)c(=O)n2C` [AZD7648] + C=CCn1c(=O)c2cnc(Nc3ccc(N4CCN(C)CC4)cc3)nc2n1-c1cccc(C(C)(C)O)n1 [AZD1775] (first compound max 10 µM, partner max 1 µM): the Bliss excess in assay [1] is -0.0422; in assay [2], -0.0348; in assay [3], 0.022; in [4], 0.0222; with D-263MG (Glioblastoma) it was 0.0037; in assay [5], -0.0596. For the same molecule, the Bliss excess in the assay on EW-24 (Ewing's Sarcoma) was -0.0294; in assay [6], 0.0137; in assay [7] it was -0.0274; in assay [8], -0.03; in [9], -0.0027; in assay [10], -0.0459. Moreover, the Bliss excess in assay [11] is -0.0665; in assay [12], -0.0156; in assay [13] it was 0.0135; in assay [14] it was 0.0239; in assay [15], 0.0004; in the assay with TGW (Neuroblastoma) it was -0.0505. In addition, the values for the Bliss excess in the assay on TK10 (Kidney Carcinoma) and in the assay on UACC-62 (Melanoma) were 0.0668 and 0.0242, respectively.

Consider `Cc1cc2ncnn2cc1Nc1ncc2c(n1)n(C1CCOCC1)c(=O)n2C` [AZD7648] + CCN(CCO)CCCOc1ccc2c(Nc3cc(CC(=O)Nc4cccc(F)c4)[nH]n3)ncnc2c1 [AZD2811] (first compound max 10 µM, 7x7, partner max 1 µM), for which the Bliss excess is 0.0431 in assay [1]; 0.013 in [2]; 0.0541 in assay [3]; 0.0293 in [4]; 0.0415 in the assay on D-263MG (Glioblastoma); 0.116 in [5]. Moreover, the Bliss excess in the assay with EW-24 (Ewing's Sarcoma) is -0.0051; in [6], -0.0572; in assay [7], -0.0197; in assay [8], 0.0246; in assay [9], 0.0057; in [10] it was 0.0108. In addition, the Bliss excess in assay [11] was -0.0095; in [12] it was -0.0718; in assay [13] it was -0.0078; in [14] it was 0.0013; in assay [15], 0.0406; in the assay with TGW (Neuroblastoma) it was 0.0148. The Bliss excess with TK10 (Kidney Carcinoma) was 0.0024; with UACC-62 (Melanoma), -0.0027.

Consider `Cc1cc2ncnn2cc1Nc1ncc2c(n1)n(C1CCOCC1)c(=O)n2C` [AZD7648] + CN(C)CCCOc1ccc(-c2ccc3ncc4c(c3c2)n(C2CCOCC2)c(=O)n4C)cn1 [AZD0156] (first compound max 10 µM, 7x7, partner max 1 µM), for which the Bliss excess is 0.0135 in assay [1]; 0.0101 in [2]; 0.0625 in assay [3]; 0.0511 in assay [4]; 0.005 with D-263MG (Glioblastoma); -0.0815 in [5]. For the same molecule, the Bliss excess was -0.0643 in the assay with EW-24 (Ewing's Sarcoma); 0.0279 in assay [6]; -0.0324 in assay [7]; 0.0038 in assay [8]; 0.0053 in [9]; -0.003 in [10]. For the same molecule, the Bliss excess was -0.0187 in assay [11]; 0.0054 in [12]; 0.0016 in [13]; -0.0144 in assay [14]; 0.0107 in assay [15]; 0.0804 with TGW (Neuroblastoma). For the same molecule, the Bliss excess with TK10 (Kidney Carcinoma) is 0.013; in the assay with UACC-62 (Melanoma) it was 0.0247.

Regarding `Cc1cc2ncnn2cc1Nc1ncc2c(n1)n(C1CCOCC1)c(=O)n2C` [AZD7648] + COc1cc([C@@H]2c3cc4c(cc3[C@@H](O[C@@H]3O[C@@H]5CO[C@@H](C)O[C@H]5[C@H](O)[C@H]3O)[C@H]3COC(=O)[C@H]23)OCO4)cc(OC)c1O [Etoposide] (first compound max 10 µM, 7x7, partner max 10 µM), the Bliss excess is 0.138 in assay [1]; 0.0306 in assay [2]; 0.141 in assay [3]; 0.0606 in assay [4]; 0.0729 with D-263MG (Glioblastoma); -0.0295 in assay [5]. For the same molecule, the Bliss excess is 0.0463 in the assay with EW-24 (Ewing's Sarcoma); 0.191 in assay [6]; -0.0566 in assay [7]; 0.0385 in assay [8]; 0.0212 in [9]; 0.05 in assay [10]. The Bliss excess in [11] is -0.0968; in [12], -0.0079; in [13], 0.017; in assay [14], 0.0671; in [15], 0.0808; with TGW (Neuroblastoma) it was 0.0615. The Bliss excess in the assay on TK10 (Kidney Carcinoma) was determined as 0.0187; in the assay with UACC-62 (Melanoma) it was 0.045.

The values above are taken from the supplement of paper PMC11061612.
